Assay: Inhibition of Fas-mediated cell death in oxygen and glucose deprived rat H9c2 cells treated 30 mins before oxygen and glucose deprivation measured after 6 hrs by DAPI staining

Row | SMILES | EC50 [nM]
1 | COC(=O)c1nn(CCc2ccccc2)cc1NC(=O)COc1ccc(Br)cc1 | 355
2 | COC(=O)c1nn(CCc2ccccc2)cc1NC(=O)CCc1ccccc1 | 427
3 | COC(=O)c1sc2ccccc2c1NC(=O)CCSc1ccc(Br)cc1 | 724
4 | O=C(CSc1ccc(Br)cc1)Nc1c(C(=O)O)oc2ccccc12 | 724
5 | COC(=O)c1cc(Br)cc(Br)c1NC(=O)CCSc1ccccn1 | 933
6 | O=C(CSc1ccc(Br)cc1)Nc1c(Br)cc(Br)cc1C(=O)O | 1230
7 | COC(=O)c1ccsc1NC(=O)CCSc1ccc(Br)cc1 | 589
8 | COC(=O)c1ccsc1NC(=O)CSc1ccc(Br)cc1 | 759
9 | COC(=O)c1ccsc1NC(=O)CSc1ccccc1 | 724
10 | COC(=O)c1sccc1NC(=O)CN(C)c1ccccc1 | 661
11 | CN(C)C(=O)c1sccc1NC(=O)CSc1ccc(Br)cc1 | 851
12 | COC(=O)c1sccc1NC(=O)CSc1ccccc1 | 794
13 | O=C(CCSc1ccccn1)Nc1cc(Cl)ccc1C1=NCCO1 | 1740
14 | O=C(CSc1ccc(Br)cc1)Nc1ccccc1C(=O)O | 2240
15 | COC(=O)c1sccc1NC(=O)CCSc1ccc(Br)cc1 | 1290
16 | COC(=O)c1c(NC(=O)CSc2cccc(OC)c2)cnn1CCc1ccccc1 | 437
17 | COC(=O)c1sccc1NC(=O)CSc1ccc(Br)cc1 | 427
18 | COC(=O)c1sccc1NC(=O)COc1ccc(Br)cc1 | 891
19 | COC(=O)c1sccc1NC(=O)CSc1ccc(OC)cc1 | 871
20 | COC(=O)c1sc2ccccc2c1NC(=O)CSc1ccccc1 | 692
21 | COc1cc(C(=O)O)c(NC(=O)CCSc2ccccn2)c(OC)c1OC | 2090
22 | COC(=O)c1cc(OC)c(OC)c(OC)c1NC(=O)CCSc1ccccn1 | 1070

Row | SMILES | EC50 [nM]
23 | COC(=O)c1cc(OC)c(OC)cc1NC(=O)CCSc1ccccn1 | 1320
24 | COC(=O)c1ccc(Cl)cc1NC(=O)CCSc1ccccn1 | 1020
25 | COC(=O)c1cc(Br)cc(Br)c1NC(=O)C(Sc1ccc(Br)cc1)c1ccccc1 (stereo not drawn) | 1580
26 | O=C(O)c1cc(Cl)ccc1NC(=O)C(Sc1ccc(Br)cc1)c1ccccc1 (stereo not drawn) | 2000
27 | COc1cc(NC(=O)CSc2ccc(Br)cc2)c(C2=NCCO2)cc1OC | 955
28 | COC(=O)c1ccc(Cl)cc1NC(=O)CSc1ccc(Br)cc1 | 955
29 | COC(=O)c1ccccc1NC(=O)CSc1ccccc1 | 562
30 | COC(=O)c1sccc1NC(=O)CCSc1ccccc1 | 501
31 | COC(=O)c1c(NC(=O)CSc2ccccc2N)cnn1CCc1ccccc1 | 513
32 | COC(=O)c1c(NC(=O)CSc2ccc(Br)cc2)cnn1CCc1ccccc1 | 513
33 | COC(=O)c1c(NC(=O)CSc2ccc([N+](=O)[O-])cc2)cnn1CCc1ccccc1 | 457
34 | Cc1csc(C(=O)O)c1NC(=O)CSc1ccc(Br)cc1 | 1120
35 | COC(=O)c1sccc1NC(=O)CSc1cccc(OC)c1 | 575
36 | COC(=O)c1sc2ncccc2c1NC(=O)CCSc1ccccn1 | 490
37 | COC(=O)c1oc2cccc(Cl)c2c1NC(=O)CSc1ccc(Br)cc1 | 1150
38 | COC(=O)c1oc2ccccc2c1NC(=O)CSc1ccc(Br)cc1 | 661
39 | COC(=O)c1oc2cccc(Cl)c2c1NC(=O)CCSc1ccccn1 | 631
40 | COC(=O)c1oc2cccc(Cl)c2c1NC(=O)CSc1ccccn1 | 646
41 | COC(=O)c1oc2ccccc2c1NC(=O)COc1ccc(Br)cc1 | 1050
42 | COC(=O)c1oc2ccccc2c1NC(=O)CSc1ccc([N+](=O)[O-])cc1 | 575
43 | COC(=O)c1ccccc1NC(=O)CSc1ccccn1 [2-[[1-oxo-2-(2-pyridinylthio)ethyl]amino]benzoic acid methyl ester] | 692

— BindingDB's records for doi:10.1016/j.bmcl.2013.07.018 (Chungnam National University, 2013)
